In BindingDB's records for doi:10.1021/jm800369f (Amgen, 2008):

Target: Corticosteroid 11-beta-dehydrogenase isozyme 1
Assay: Inhibition of human recombinant 11beta-HSD1 expressed in Pichia pastoris

IC50: 14 nM
Structure (SMILES): O=C(Nc1cccc(C(=O)N2CCC[C@H]3CCCC[C@@H]32)c1)c1ccccc1 [N-(3-((4aR,8aS)-decahydroquinoline-1-carbonyl)phenyl)benzamide]
